Data set [1] can be described thus: Pharmacokinetics in blood. The format is in vivo. The settings on record: healthy BALB/C mouse, i.v. 5.55 MBq, noncompartmental model, Phoenix WinNonlin 8.1. As to the method:
The static PET/CT imaging in A549 and A549-PD-L2 xenograft models after injection of 5.55 to 7.4 MBq (150 to 200 μCi) of [^68Ga]Ga-HN11-1 or [^68Ga]Ga-HN11-2 were acquired at 60 min. In the [^68Ga]Ga-HN11-1 + block or [^68Ga]Ga-HN11-2 + block groups, the xenograft models underwent pretreatment via intravenous injection of HN11-1 or HN-2 (10 mg/kg) before PET/CT imaging. Then, ROIs were delineated for each group. After imaging, tumor tissues from both the A549 and A459-PD-L2 xenograft tumors were extracted, and the PD-L2 expression was tested by IHC. For the pharmacokinetics study, healthy BALB/C mouse received an intravenous injection of 5.55 MBq (150 μCi) of [^68Ga]Ga-HN11-1 and [^68Ga]Ga-HN11-2. Measure the activity of blood samples (%ID/g, mean ± SD) at the corresponding time points, and the time-activity curve was plotted. Subsequently, pharmacokinetic parameters were tested using the noncompartmental model in Phoenix WinNonlin 8.1 software (Certara, USA).

Data set [2] relates to A549-PD-L2 tumor xenograft models. Kind of data set: Dynamic micro-PET imaging in A549-PD-L2 xenografts. The format is in vivo, BALB/C nude mice. The settings on record: n = 3. The method, then:
Micro-PET imaging was conducted using an Inveon PET scanner (Siemens, Germany). Dynamic PET examine were acquired over the first 60 min following the simultaneous injection of 7.4 to 9.25 MBq (200 to 250 μCi) of [^68Ga]Ga-HN11-1 and [^68Ga]Ga-HN11-2. After reconstructing the images and delineating the regions of interest (ROIs), time-radioactivity curves were plotted to obtain the Tumor/Muscle (T/M) ratios. %ID/g represents the percentage of the injected dose of the radiotracer that accumulates in a specific tissue per gram of tissue weight. For the biodistribution study, the xenograft models received an intravenous injection of 3.7 to 5.5 MBq (100 to 150 μCi) of [^68Ga]Ga-HN11-1. After the designated period (10, 30, 60, and 90 min), the mice were euthanized, and important tissues and organs were dissected and collected. The samples were counted using the γ-counter for determining the %ID/g, presented as mean ± standard deviation (SD).
A549 cell lines were provided by the China Center for Type Culture Collection (CCTCC) and cultured in RPMI-1640 medium supplemented with 10 % fetal bovine serum and 100 U/mL penicillin-streptomycin. The lentivirus system was implemented to introduce PD-L2 (PDCD1LG2) over-expressed cDNA into the A549 cells. The viral vectors were produced in 293T cells and co-transfected with the psAX2, pMD2G and PD-L2 plasmids. A549 cells transduced with the vectors were selectively grown in 1.6 μg/mL puromycin. Transfection efficiency was identified by WB and real-time quantitative PCR. All the cells were cultured in an incubator at 37° C with 5 % CO2 atmosphere. A549 and A549-PD-L2 cells (5 × 10^6, 200 μL)were subcutaneously implanted into the right shoulder of BALB/C nude mice (male, 4-6 weeks), respectively. When the tumors reached to 5 - 8 mm in diameter, the mice were subjected to in vivo and ex vivo studies. All the mice were purchased from the Laboratory Animal Center of Central South University.

The nature of data set [3]: Safety after intravenous injection in volunteers and patients. The class given is in vivo, human. Particulars: 3 healthy volunteers and 6 patients, intravenous injection 3.1 to 4.9 MBq/kg. As to the method: The program content was explained to all healthy volunteers and cancer patients, and written informed consent was obtained. Whole-body dynamic imaging was conducted for 60 min using a PET/CT 690 Elite scanner (GE Discovery) immediately after intravenous injection of [^68Ga]Ga-HN11-1 (3.1 to 4.9 MBq/kg). A static body scan was performed 15 to 45 min after injection. All cancer patients underwent [^18F]F-FDG and [^68Ga]Ga-HN11-1 PET/CT imaging within 5 d. Two nuclear medicine physicians reconstructed and reviewed the images on GE aw 4.6 workstations and reached a consensus. They delineated the ROIs and measured the values of maximum standard uptake and average standard uptake (SUVmax and SUVmean). The biological distribution of [^68Ga]Ga-HN11-1 in healthy volunteers was determined by SUVmax and SUVmean. The OLINDA/EXM software (version 1.0, Hermes Medical Solutions AB) was used to estimate the human radiation dose based on the SUVmean of each organ.

Each structure is given as a SMILES string. Peptide text beside a SMILES is read from it. * marks the point of attachment. NOTA = O=C(O)CN1CCN(CC(=O)O)CCN(CC(=O)*)CC1; AEEEA = NCCOCCOCCOCC(=O)O

`CC[C@H](C)[C@H](NC(=O)[C@H](CCCNC(=N)N)NC(=O)CNC(=O)[C@H](CCC(=O)O)NC(=O)[C@H](CC(N)=O)NC(=O)[C@H](Cc1ccc(O)cc1)NC(=O)[C@H](CCCNC(=N)N)NC(=O)[C@H](Cc1ccc(O)cc1)NC(=O)[C@H](Cc1c[nH]cn1)NC(=O)COCCOCCOCCNC(=O)CN1CCN(CC(=O)O)CCN(CC(=O)O)CC1)C(=O)N[C@@H](CCCNC(=N)N)C(=O)N[C@@H](CC(N)=O)C(=O)O` [[^68Ga]Ga-HN11-1, metal not drawn] ({NOTA-AEEEA}-HYRYNEGRIRN-OH) registered a half-life in blood in data set [1] of 13.37 min. In addition, the tumor uptake in data set [2] (10 min after injection) stood at 2.61 ± 0.16 %ID/g; in data set [2] (20 min after injection), 2.97 ± 0.18 %ID/g; in data set [2] (30 min after injection) it was 3.36 ± 0.29 %ID/g; in data set [2] (40 min after injection) it was 3.22 ± 0.23 %ID/g; in data set [2] (50 min after injection) it was 3.06 ± 0.36 %ID/g; in data set [2] (60 min after injection), 2.76 ± 0.42 %ID/g. The “tolerability / adverse pharmacological reactions” value in data set [3] was “well tolerated and without adverse pharmacological reactions observed”.

Values taken from article PMC11528066, “Noninvasive Monitoring of Programmed Death-Ligand 2 Expression with Positron Emission Tomography using ^68Ga-labeled Peptide Antagonist in Preclinical and Exploratory Human Studies” (Research, 2024).
